Results from US20080188513A1, “1-(2-Methylpropyl)-1H-Imidazo[4,5-C](1,5]Naphthyridin-4-Amine Ethanesulfonate and 1-(2-Methylpropyl)-1H-Imidazo[4,5-C](1,5]Naphthyridin-4-Amine Methanesulfonate” (taked Pharmaceutical Company Limited, priority 2004, published 2008).
≈ marks a conversion by molar mass, not a printed value. Where “and” joins values, the source holds several entries; their conditions need not be identical. Equal entries are not always repeated.

Experiments:
[1] = In-situ salt selection test carried out in water; type: physicochemical; settings: for Appearance: appearance of the resulting solution after 24 hours at 25° C., in water; for aqueous solubility (in words): summary statement; for solubility at 24 h: water (salt formed in situ with aqueous acid), thermodynamic from solid
Protocol: Aqueous solutions (0.5 molar (M)) of ethanesulfonic acid, methanesulfonic acid, and hydrochloric acid were prepared. For ethanesulfonic acid and methanesulfonic acid, the neat acid (0.05 mol) was dissolved in water (100 mL) to prepare the solutions. Hydrochloric acid (1 normal (N)) was diluted with water to prepare 0.5 M hydrochloric acid. The free base of 1-(2-methylpropyl)-1H-imidazo[4,5-c][1,5]naphthyridin-4-amine in an amount indicated in the following Table 1 was added to a vial, and the acidic solution from the following Table 1 (1.05 equivalent) was added. The vial was capped and shaken at 25° C. in a water bath for 24 hours. The resulting salt mixture or solution was filtered through Whatman No. 5 filter paper, and 1 mL of the filtrate was diluted with methanol (10 mL) to provide a specimen for analysis. The solubility of the salt in water was determined for each specimen by analyzing for soluble salt content by reverse phase high performance liquid chromatography (HPLC) using the following method.
A diluent was prepared by dissolving phosphoric acid (1 mL of 85%) in HPLC grade water (1 L). The resulting solution was mixed in a 60:40 ratio with acetonitrile. Each specimen was diluted to a volume of 50.0 mL with the diluent to provide a sample having a concentration of less than or equal to (≦) 50 micrograms per milliliter (μg/mL).
An external standard was prepared by dissolving 1-(2-methylpropyl)-1H-imidazo[4,5-c][1,5]naphthyridin-4-amine free base (25 mg) in methanol (30 mL) with the aid of sonication and then diluting to a volume of 50.0 mL with methanol to provide a stock solution. Diluent was added to 5 mL of the stock solution to a volume of 50.0 mL.
A Waters LC Module 1 HPLC system equipped with an autosampler, a reproducible injector, a UV detector (326 nm wavelength), and Turbochrom data acquisition software was used with a ZORBAX Bonus-RP C14, 15 cm×4.6 mm column with 5 μm packing. The mobile phase was prepared by dissolving 1-octanesulfonate, sodium salt (2.00 g) and phosphoric acid (1 mL of 85%) in HPLC grade water (1 L) and mixing the resulting solution in a 65:35 ratio with HPLC grade acetonitrile. A flow rate of 1.0 mL/min was used.
The column was equilibrated with the mobile phase, and the system was tested using six 20 μL injections of the external standard to ensure that the relative standard deviation for the peak areas was less than or equal to (≦) 1.5%. An injection of each sample (20 μL) was tested in comparison to a standard. The concentration, in percentage, of 1-(2-methylpropyl)-1H-imidazo[4,5-c][1,5]naphthyridin-4-amine in solution was then calculated using the following operation: {[peak area of the sample/weight of the sample (mg)]/[peak area of the standard/weight of the standard (mg)]average}×100. The solubility of the salt, presented in the following Table 1, can then be calculated using the equations presented by Tong, W. Q., and Whitesell, G, Pharmaceutical Development and Technology, 3(2), pp. 215-223 (1998).

[2] = In-situ salt selection test carried out in water with a cosolvent; type: physicochemical; settings: 25 °C, aqueous with cosolvent or surfactant or cyclodextrin, thermodynamic from solid, final acid concentration 0.05 M
[3] = tested on: interferon (α) and tumor necrosis factor (α) secreted by peripheral blood mononuclear cells (PBMC); assay: Cytokine induction in human cells (PBMC); type: cell-based; settings: 18 to 24 hours, 30-0.014 μM
From the text: An in vitro human blood cell system is used to assess cytokine induction. Activity is based on the measurement of interferon (α) and tumor necrosis factor (α) (IFN and TNF, respectively) secreted into culture media as described by Testerman et al. in “Cytokine Induction by the Immunomodulators Imiquimod and S-27609,” Journal of Leukocyte Biology, 58, 365-372 (September, 1995).
Whole blood from healthy human donors is collected by venipuncture into EDTA vacutainer tubes. Peripheral blood mononuclear cells (PBMC) are separated from whole blood by density gradient centrifugation using HISTOPAQUE-1077. […]
Following incubation the plates are centrifuged for 10 minutes at 1000 revolutions per minute (rpm) (approximately 200×g) at 4° C. […] The samples are analyzed for interferon (α) by ELISA and for tumor necrosis factor (α) by ELISA or IGEN Assay.
Interferon (α) concentration is determined by ELISA using a Human Multi-Species kit from PBL Biomedical Laboratories, New Brunswick, N.J. Results are expressed in pg/mL.
Tumor necrosis factor (α) (TNF) concentration is determined using ELISA kits available from Biosource International, Camarillo, Calif. Alternately, the TNF concentration can be determined by ORIGEN M-Series Immunoassay and read on an IGEN M-8 analyzer from IGEN International, Gaithersburg, Md. […]

[4] = Physical and chemical stability in solid form; type: physicochemical
[5] = Aqueous solubility of the free base measured potentiometrically as a function of pH (p-SOL microtitrator); type: physicochemical; settings: saline or isotonic, thermodynamic from solid, 0.15 M aqueous potassium chloride, potentiometric titration, read-out: intrinsic solubility (So)
Protocol: (§1) The aqueous solubility of 1-(2-methylpropyl)-1H-imidazo[4,5-c][1,5]naphthyridin-4-amine free base was measured potentiometrically as a function of pH. […] The titration was carried out on a sample approximately 3 mg in size. […] The pKa of 1-(2-methylpropyl)-1H-imidazo[4,5-c][1,5]naphthyridin-4-amine, determined potentiometrically in a separate experiment to be 6.1, was used in the calculation to determine the intrinsic solubility. The curve showing solubility as a function of pH for 1-(2-methylpropyl)-1H-imidazo[4,5-c][1,5]naphthyridin-4-amine free base is shown in FIG. 5.

[6] = pKa determined potentiometrically; type: physicochemical; settings: determined potentiometrically in a separate experiment
Protocol: as §1

[7] = tested on: cytokine biosynthesis; settings: U.S. Pat. No. 6,194,425; cited from earlier work
[8] = salt formed in situ in water, shaken at 25° C. for 24 hours, filtrate by HPLC
[9] = 5% (w/w) diethylene glycol monoethyl ether in water
[10] = 5% (w/w) propylene glycol in water

Structure (SMILES)	Appearance [1]	aqueous solubility (in words) [1]	solubility at 24 h [1, 8]	solubility at 24 h [2, 9]	solubility at 24 h [2, 10]	induction of interferon α and/or tumor necrosis factor α production [3]	physical and chemical stability in solid form [4]	solubility [5]	pKa [6]	ability to induce cytokine biosynthesis [7]	solubility [1, 8]	melting point
CC(C)Cn1cnc2c(N)nc3cccnc3c21.CCS(=O)(=O)O [Ethanesulfonic, 1-(2-methylpropyl)-1H-imidazo[4,5-c][1,5]naphthyridin-4-amine ethanesulfonate]	Clear	good aqueous solubility	24.4 mg/mL	10.5 mg/mL	> 10.1 mg/mL	inducing the production of interferon α and/or tumor necrosis factor α	good physical and chemical stability in solid form					
CC(C)Cn1cnc2c(N)nc3cccnc3c21 [1-(2-methylpropyl)-1H-imidazo[4,5-c][1,5]naphthyridin-4-amine]		particularly low aqueous solubility						0.003 mg/mL (≈ 12.4 µM)	6.1	ability to induce cytokine biosynthesis		
CC(C)Cn1cnc2c(N)nc3cccnc3c21.Cl [Hydrochloric, hydrochloride salt of 1-(2-methylpropyl)-1H-imidazo[4,5-c][1,5]naphthyridin-4-amine, reference compound]	Milky,	low aqueous solubility									0.39 mg/mL	
CC(C)Cn1cnc2c(N)nc3cccnc3c21.CS(=O)(=O)O [Methanesulfonic, 1-(2-methylpropyl)-1H-imidazo[4,5-c][1,5]naphthyridin-4-amine methanesulfonate]	Translucent	good aqueous solubility	15.2 mg/mL	10.5 mg/mL	10.3 mg/mL		good physical and chemical stability in solid form					
CC(C)Cn1cnc2c(N)nc3cccnc3c21.CCS(=O)(=O)O.O (hydrate or solvate)												221.5 to 223.4 °C and 220 to 221 °C
